Reference: patent US7700657B2, “Vitamin D analogs” (Galderma Research & Development, priority 2001, dated 2010)
pIC50: −log10 of the molar value. Where two headings read alike, the source gives them in different places.

Assays:
human VDR receptor = biological target: T1, human VDR receptor (Homo sapiens, UniProt P11473); test: Transactivation potential: VDR agonist activity, HeLa cotransfection with p240Hase-CAT reporter; type: cell-based; settings: dose giving 50% of maximum activity, HeLa cells, 18 hours treatment
T1 construct: expressed in transfected cells; host or cells: HeLa
T1 sequence (P11473 1-427): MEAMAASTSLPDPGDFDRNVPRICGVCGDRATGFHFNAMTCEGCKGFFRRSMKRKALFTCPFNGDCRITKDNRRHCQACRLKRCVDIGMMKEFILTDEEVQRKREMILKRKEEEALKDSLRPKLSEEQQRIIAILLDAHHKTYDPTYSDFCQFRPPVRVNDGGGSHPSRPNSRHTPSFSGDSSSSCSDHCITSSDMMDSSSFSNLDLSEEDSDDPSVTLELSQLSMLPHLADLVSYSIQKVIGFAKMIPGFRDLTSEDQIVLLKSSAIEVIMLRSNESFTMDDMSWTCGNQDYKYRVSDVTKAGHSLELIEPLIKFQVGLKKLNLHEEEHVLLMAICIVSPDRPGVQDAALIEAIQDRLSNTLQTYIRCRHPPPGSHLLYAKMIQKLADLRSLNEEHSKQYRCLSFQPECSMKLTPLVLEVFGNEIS
Description: By way of example, the VDR agonist activity can be tested on the HeLa cell line by cotransfection of an expression vector for the human VDR receptor and of the reporter plasmid p240Hase-CAT. The agonist activity can be characterized in this cotransfection system by the determination of the dose necessary to obtain 50% of the maximum activity of the product (AC50). The detail of the protocol of this test as well as the results obtained with the compounds according to the invention are described in example 7 of the present application.
The VDR agonist activity can be tested on the HeLa cell line, by cotransfection of an expression vector of the human VDR receptor and of the p240Hase-CAT reporter plasmid which contains the region −1399 to +76 of the rat 24-hydroxylase promoter, cloned upstream of the phase coding for the chloramphenicol acetyltransferase (CAT) gene. 18 hours after cotransfection, the test product is added to the medium. After treatment for 18 hours, the measurement of the CAT activity of the cell lysates is carried out by means of an Elisa test (Enzyme Linked Immuno Sorbent Essay, test marketed by Roche Molecular Biochemicals). The agonist activity can be characterized in this cotransfection system by the determination of the dose necessary in order to obtain 50% of the maximum activity of the product (AC50).

[1] = test system: normal human keratinocytes; test: Inhibition of proliferation of normal human keratinocytes (BrdU incorporation); type: cell-based; settings: 5 days culture
Protocol: The biological properties analogous to vitamin D can likewise be measured by the capacity of the product to inhibit the proliferation of normal human keratinocytes (NHK in culture). The product is added to NHK cultured under conditions favoring the proliferative state. The product is left in contact with the cells for five days. The number of proliferative cells is measured by incorporation of bromodeoxyuridine (BRdU) into the DNA. The protocol of this test as well as the results obtained with the compounds according to the invention are described in example 8 of the present application.
It is known that 1,25-dihydroxyvitamin D3, called calcitriol and corresponding to natural vitamin D, inhibits the proliferation of human keratinocytes in culture. The method used is the following: the normal human keratinocytes are inoculated at low density into a 24-well plate. After 4 hours, the compounds to be tested are added to the culture medium. After culturing for 5 days, the proliferation of the keratinocytes is determined by incorporation of 5-bromo-2′ deoxyuridine (BrdU) in the DNA. The quantity of BrdU incorporated is then quantified by using the Elisa test (Enzyme Linked Immuno Sorbent Essay, test marketed by Roche Molecular Biochemicals).
The inhibitory effect on the proliferation of the keratinocytes of the compounds according to the invention and of the calcitriol used as a reference compound is summarized in table II which follows.

24-hydroxylase = test: In vivo induction of 24-hydroxylase mRNA in SKH mice after single topical application; settings: for Induction in % vs Induction Calcitriol Tested at 0.01%: topical, 8 hours; for MRNA EXPRESSION OF 24-HYDROXYLASE Induction Factor Versus Ethanol: 50 μl, epidermis 8 hours after application
Description: The agonist activity on vitamin D receptors of the compounds of the invention can be likewise evaluated “in vivo” by induction of 24-hydroxylase in SKH mice. (Kang et. al., Journal of Investigative Dermatology, 1997, 108(4), 513-518). The test protocol used as well as the results obtained with the compounds according to the invention are described in example 10 of the present application. 1]:
Consequently, the agonist activity on receptors of vitamin D of the compounds of the invention can be evaluated “in vivo” by induction of 24-hydroxylase in SKH mice.
The method used is the following: […] mice receive a single topical application of a compound to be tested in solution in ethanol at increasing concentrations. A volume of 50 μl of the product to be tested or of the vehicle alone is applied on the back of the mice with the aid of a pipette.
Other SKH mice receive a single topical application of calcitriol in solution in ethanol at increasing concentrations. A volume of 50 μl of the product to be tested or of the vehicle alone is applied on the back of the mice with the aid of a pipette.
8 hours after topical application, the mice are euthanized, the treated skin is removed and the epidermidis is separated from the dermis. The quantification of the MRNA of the 24-Hydroxylase is carried out by semiquantitative PCR. The results are standardized with respect to the expression of the mRNA of GAPDH and the values for the different concentrations of calcitriol tested and, for the different compounds of the invention tested, are expressed as an induction factor with respect to calcitriol.

[2] = test system: HL60 promyelocytic leukemia cells; test: Induction of differentiation of HL60 cells (NBT reduction); type: cell-based; settings: 4 days culture, NBT-positive cells, read-out: Activation of Differentiation AC 50
Description: The biological properties analogous to vitamin D can likewise be measured by the capacity of the product to induce the differentiation of HL60 promyelocytic leukemia cells. The protocol of this test as well as the results obtained with the compounds according to the invention are described in example 9 of the present application.
Calcitriol induces the differentiation of promyelocytic leukemia cells (HL60) in monocytes/macrophages. This differentiation inductor effect is a well-characterized marker of cellular vitamin D activity. One of the most important antimicrobial products of macrophages is hydrogen peroxide, which can be analyzed experimentally by the reduction of NBT (Nitroblue Tetrazolium).
The method used is the following: The HL60 cells are inoculated into 6-well plates and then treated immediately with the compounds to be tested. After 4 days in culture, the cells are incubated with phorbol TPA ester and NBT for a short period and the differentiated cells, i.e., positive to NBT, are counted.

[3] = compound tested at 0.01% (weight/volume)

Compound	AC50 (human VDR receptor) [nM]	pIC50 ([1]; Keratinocyte, 120 h)	Induction in % vs Induction Calcitriol Tested at 0.01% (24-hydroxylase; [3]) [%]	AC50 ([2]; Homo sapiens, HL-60, 96 h) [nM]	other results
CC/C(=C\C#CC(O)(C(F)(F)F)C(F)(F)F)c1cccc(OCc2ccc(CO)c(CO)c2)c1 [Example 2, (E)-6-[3-{3,4-Bis-hydroxymethylbenzyloxy)phenyl]-1,1,1-trifluoro-2-tifluoromethyloct-5-en-3-yn-2-ol]	77	6.82	58	–	–
CC/C(=C\C#CC(O)(C(F)(F)F)C(F)(F)F)c1cccc(CCc2ccc(CO)c(CO)c2)c1 [Example 4, (E)-6-{3-[2-(3,4-Bis-hydroxymethylphenyl)ethyl]phenyl}-1,1,1-trifluoro-2-trifluoromethyloct-5-en-3-yn-2-ol]	16	7.54	89	–	–
CC/C(=C\C=C\C(O)(CC)CC)c1cccc(CCc2ccc(CO)c(CO)c2)c1 [Example 1, (4E,6E)-7-{3-[2-(3,4-Bis-hydroxymethylphenyl)ethyl]-phenyl}-3-ethylnona-4,6-dien-3-ol]	39	7.35	–	56	Induction in % vs Induction Calcitriol Tested at 0.01% (24-hydroxylase; compound tested at 0.1% (weight/volume)): 108%
CC/C(=C\C=C\C(O)(C(F)(F)F)C(F)(F)F)c1cccc(OCc2ccc(CO)c(CO)c2)c1 [Example 3, (3E,5E)-6-[3-(3,4-Bis-hydroxymethylbenzyloxy)pheny]-1,1,1-trifluoro-2 trifluoromethylocta-3,5-dien-2-ol]	7	7.46	–	7	Induction in % vs Induction Calcitriol Tested at 0.01% (24-hydroxylase; compound tested at 0.001% (weight/volume)): 59%; activity (24-hydroxylase induction) compared with calcitriol (24-hydroxylase; in words): very superior
1,25-dihydroxyvitamin D3 [Calcitriol, reference compound]	–	–	100	–	pIC50 [1]: 7.85; AC50 [2]: 7 nM; MRNA EXPRESSION OF 24-HYDROXYLASE Induction Factor Versus Ethanol (24-hydroxylase; topical 0.0001% (weight/volume) in ethanol): 6.7; MRNA EXPRESSION OF 24-HYDROXYLASE Induction Factor Versus Ethanol (24-hydroxylase; topical 0.001% (weight/volume) in ethanol): 10.3; MRNA EXPRESSION OF 24-HYDROXYLASE Induction Factor Versus Ethanol (24-hydroxylase; topical 0.01% (weight/volume) in ethanol): 20.1; MRNA EXPRESSION OF 24-HYDROXYLASE Induction Factor Versus Ethanol (24-hydroxylase; topical 0.1% (weight/volume) in ethanol): 26
CC/C(=C\C=C\C(O)(C(F)(F)F)C(F)(F)F)c1cccc(CCc2ccc(CO)c(CO)c2)c1 [Example 5, (3E,5E)-6-{3-[2-(3,4-Bis-hydroxymethylphenyl)ethyl]-phenyl}-1,1,1-trifluoro-2-trifluoromethylocta-3,5-dien-2-ol]	3	8.10	–	5	Induction in % vs Induction Calcitriol Tested at 0.01% (24-hydroxylase; compound tested at 0.0003% (weight/volume)): 106%
